Assay results: the supplement of paper PMC11451515

Test system: P12-Ichikawa
Test: cell viability relative to DMSO control; higher = less cytotoxic
Settings: 48 h
Procedure, shortened: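 Viability values are per-plate percentages of DMSO wells, with background from cell-free wells. Library compounds in DMSO were pin-dosed, in an 11-point threefold series from 47 μM to 0.79 nM, onto NOMO1 or SEM (500 cells/well) or P12-Ichikawa (1000 cells/well) leukemia cells in 1536-well plates (5 μl). Those cells had been adapted for at least four passages in each medium, and CellTiter-Glo One luminescence was read after 48 h at 37°C.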

[1] = HPLM + 10% dialyzed FBS, 0.000781 µM
[2] = HPLM + 10% dialyzed FBS, 0.00234 µM
[3] = HPLM + 10% dialyzed FBS, 0.00702 µM
[4] = HPLM + 10% dialyzed FBS, 0.0211 µM
[5] = HPLM + 10% dialyzed FBS, 0.0632 µM
[6] = HPLM + 10% dialyzed FBS, 0.19 µM
[7] = HPLM + 10% dialyzed FBS, 0.569 µM
[8] = HPLM + 10% dialyzed FBS, 1.71 µM
[9] = HPLM + 10% dialyzed FBS, 5.12 µM
[10] = HPLM + 10% dialyzed FBS, 15.4 µM
[11] = HPLM + 10% dialyzed FBS, 46.1 µM
[12] = RPMI 5 mM glucose + 10% FBS, 0.000781 µM
[13] = RPMI 5 mM glucose + 10% FBS, 0.00234 µM
[14] = RPMI 5 mM glucose + 10% FBS, 0.00702 µM
[15] = RPMI 5 mM glucose + 10% FBS, 0.0211 µM
[16] = RPMI 5 mM glucose + 10% FBS, 0.0632 µM
[17] = RPMI 5 mM glucose + 10% FBS, 0.19 µM
[18] = RPMI 5 mM glucose + 10% FBS, 0.569 µM
[19] = RPMI 5 mM glucose + 10% FBS, 1.71 µM
[20] = RPMI 5 mM glucose + 10% FBS, 5.12 µM
[21] = RPMI 5 mM glucose + 10% FBS, 15.4 µM
[22] = RPMI 5 mM glucose + 10% FBS, 46.1 µM
[23] = RPMI 5 mM glucose + 10% dialyzed FBS, 0.000781 µM
[24] = RPMI 5 mM glucose + 10% dialyzed FBS, 0.00234 µM
[25] = RPMI 5 mM glucose + 10% dialyzed FBS, 0.00702 µM
[26] = RPMI 5 mM glucose + 10% dialyzed FBS, 0.0211 µM
[27] = RPMI 5 mM glucose + 10% dialyzed FBS, 0.0632 µM
[28] = RPMI 5 mM glucose + 10% dialyzed FBS, 0.19 µM
[29] = RPMI 5 mM glucose + 10% dialyzed FBS, 0.569 µM
[30] = RPMI 5 mM glucose + 10% dialyzed FBS, 1.71 µM
[31] = RPMI 5 mM glucose + 10% dialyzed FBS, 5.12 µM
[32] = RPMI 5 mM glucose + 10% dialyzed FBS, 15.4 µM
[33] = RPMI 5 mM glucose + 10% dialyzed FBS, 46.1 µM

Structure (SMILES)	cell viability [1]	cell viability [2]	cell viability [3]	cell viability [4]	cell viability [5]	cell viability [6]	cell viability [7]	cell viability [8]	cell viability [9]	cell viability [10]	cell viability [11]	cell viability [12]	cell viability [13]	cell viability [14]	cell viability [15]	cell viability [16]	cell viability [17]	cell viability [18]	cell viability [19]	cell viability [20]	cell viability [21]	cell viability [22]	cell viability [23]	cell viability [24]	cell viability [25]	cell viability [26]	cell viability [27]	cell viability [28]	cell viability [29]	cell viability [30]	cell viability [31]	cell viability [32]	cell viability [33]
CCOC(=O)Nc1ccc(NCc2ccc(F)cc2)nc1N	114%	114%	110%	113%	120%	117%	109%	105%	96.5%	94.6%	107%	107%	116%	116%	125%	118%	111%	110%	102%	91%	108%	99.8%	115%	101%	101%	104%	111%	111%	112%	103%	104%	101%	100%
CC[C@]1(O)C[C@@H]2CN(CCc3c([nH]c4ccccc34)[C@@](C(=O)OC)(c3cc4c(cc3OC)N(C)[C@H]3[C@@](O)(C(N)=O)[C@H](O)[C@]5(CC)C=CCN6CC[C@]43[C@@H]65)C2)C1	112%	109%	112%	97.5%	78.4%	18.3%	20.5%	14.2%	7.56%	7.86%	9.96%	109%	115%	115%	98.6%	65.8%	16.7%	22.7%	14%	8.37%	6.73%	6.12%	111%	103%	106%	104%	101%	34.3%	22.8%	29.1%	13.8%	10.1%	11.5%
COC1=CC=C(C=C1O)C/2=C/C(=O)C3=C(O2)C=C(O[C@@H]4O[C@H](CO[C@@H]5O[C@@H](C)[C@H](O)[C@@H](O)[C@H]5O)[C@@H](O)[C@H](O)[C@H]4O)C=C3O	108%	112%	121%	121%	115%	116%	118%	118%	116%	123%	122%	113%	113%	118%	119%	137%	116%	126%	115%	123%	113%	131%	116%	117%	117%	125%	122%	125%	126%	130%	118%	121%	127%
CC(C)Oc1ccc(C(=O)N[C@H](CNC(=O)CN(C)C)Cc2ccc(-c3cn4cccc([C@H](C)O)c4n3)cc2)cc1Cl	121%	115%	118%	115%	106%	101%	107%	78.1%	48.3%	45.8%	54.2%	117%	120%	118%	111%	115%	110%	103%	41.2%	25.3%	23%	26.6%	108%	117%	112%	110%	102%	101%	97.9%	63%	38.4%	31.6%	32.7%
Cc1cccc(/C=N/Nc2cc(N3CCOCC3)nc(OCCc3ccccn3)n2)c1	95.8%	102%	92%	104%	103%	96.7%	89.5%	79%	67.6%	42%	28.4%	92%	97.5%	92.7%	99%	100%	96.8%	79.5%	64.3%	53.2%	45%	26.4%	90%	89.4%	88.5%	89.5%	89.8%	80.6%	71.5%	60.7%	52.3%	40%	24.9%
C[C@@]1(C(=O)Nc2ccc(F)nc2)CCCN1c1nc(Nc2cc(C3CC3)[nH]n2)c2cccn2n1	103%	109%	111%	112%	114%	112%	117%	114%	11.6%	15.1%	18.6%	119%	116%	130%	113%	124%	120%	124%	116%	21.9%	23.2%	27.5%	107%	122%	135%	121%	129%	126%	131%	121%	32.2%	41%	43%
OC1=CC2=C(C(=C1)O)C(=O)\C(=C(/O2)C3=CC(=C(O)C=C3)O)O	98.8%	99.2%	108%	113%	112%	111%	107%	110%	116%	102%	79.3%	93.8%	107%	103%	103%	109%	105%	110%	101%	107%	101%	85.9%	107%	108%	113%	103%	117%	100%	117%	108%	118%	109%	73.2%
Nc1ncnc2c1c(-c1cccc(OCc3ccccc3)c1)cn2C1CC(CN2CCCC2)C1 (configuration not stated)	116%	128%	120%	130%	134%	128%	133%	124%	134%	121%	62.4%	–	–	–	–	–	–	–	–	–	–	–	–	–	–	–	–	–	–	–	–	–	–
